Test [1] relates to platelet aggregation. The test is described as follows: Light transmission aggregometry (LTA) in PPACK platelet rich plasma, ADP-induced aggregation. Particulars: samples in which Ultegra measures inhibition of 80% or greater, average lower end of a range reaching greater than 80%, ADP 20 μM. Type of test: cell-based, human. As for the experimental part: Sufficient blood volume was collected to complete matched comparisons for each donor in all three assays. Using a 19 g butterfly needle, blood was collected by venipuncture into a plastic syringe and transferred to a tube containing PPACK anticoagulant (0.3 mM final concentration) or into PPACK vacuettes provided by Ultegra®. An EDTA baseline tube was also drawn per Plateletworks® recommendation. One 10 mL sample of PPACK blood was centrifuged at 135 g for 15 minutes to obtain platelet rich plasma (“PRP”) for use in traditional light transmission aggregometry. The residual blood from this tube was centrifuged at 1500 g for 15 minutes to obtain platelet poor plasma (“PPP”). PRP was diluted to 250,000/mm^3 with autologous PPP. Diluted PRP (0.5 ml) was added to an aggregation cuvette and placed into the 37° C. aggregation chamber. Eptifibatide (125-4000 nM) or tirofiban (25-200 nM) was added to PRP, incubated for at least two minutes. 50 μl ADP (20 μM final concentration) was added to 0.45 ml PRP and the aggregation response was recorded. A baseline aggregation response (no antagonist present) was determined for each donor. Percent aggregation was calculated at the point of maximum light transmission obtained within five minutes. Percent inhibition of aggregation (IPA) was calculated using the following formula: [formula]

Test [2] has as its system platelet aggregation. The test is described as follows: ICHOR/Plateletworks whole blood platelet aggregation (platelet count), PPACK anticoagulant, ADP agonist. Particulars: for platelet inhibition measured by ICHOR/Plateletworks: samples in which Ultegra measures inhibition of 80% or greater, average lower end of a range reaching greater than 80%, PPACK whole blood, ADP 20 μM. In kind it is cell-based, human. Here is the method: Whole blood platelet aggregation was performed using a procedure modified from that outlined in the Helena Plateletworks® brochure. PPACK anticoagulant was used instead of citrate due to the well-documented effect of citrate overestimating the level of platelet inhibition by all currently approved GPIIb-IIIa antagonists (Phillips et al., “Effect of Ca^++ on Integrilin™ GPIIb-IIIa Interactions: Enhanced GPIIb-IIIa Binding and Inhibition of Platelet Aggregation by Reductions in the Concentration of Ionized Calcium in Plasma Anticoagulated with Citrate,” Circulation 96:1488-1494 (1997); Nannizzi-Alaimo et al., “Effect of Citrate Anticoagulation and Platelet Agonist Concentration on the Inhibitory Activities of GPIIb-IIIa Antagonists,” Circulation 100:1710 (1999); Kereiakes et al., “Differential Effects of Citrate Versus PPACK Anticoagulation on Measured Platelet Inhibition by Abciximab, Eptifibatide and Tirofiban,” J. Thromb. Thrombolysis 12:123-127 (2001); Jennings et al., “The Pharmacodynamics of Parenteral Glycoprotein IIb/IIIa Inhibitors,” J. Interv. Cardiol. 15(1):45-60 (2002), each of which is hereby incorporated by reference in its entirety). For this assay, 1.0 ml of PPACK anticoagulated whole-blood was mixed with increasing concentrations of eptifibatide or tirofiban and incubated for at least 2 minutes. After addition of ADP (20 μM), the tube was inverted 15-20 times to ensure mixing, and the platelet count was performed immediately (test sample). A baseline tube was also drawn and handled exactly as the antagonist sample tube minus the addition of agonist. A platelet count was also performed on blood collected into EDTA per the manufacturer's instructions. Percent inhibition of platelet aggregation was obtained from the platelet inhibition/aggregation calculation wheel provided with Plateletworks®.
When testing samples containing Reopro, the ICHOR instrument never achieves more than 60% inhibition of aggregation. […]

Where a SMILES comes first, the peptide text is derived from it. Bridges are numbered along the chain shown (N, C = ends). [ ]: non-standard residue; d: D form. hArg = N=C(N)NCCCC[C@H](N)C(=O)O; Mpa = O=C(O)CCS

In the case of `CCCCS(=O)(=O)N[C@@H](Cc1ccc(OCCCCC2CCNCC2)cc1)C(=O)O` [tirofiban], the “platelet inhibition measured by LTA” value in the test with platelet aggregation [1] was no less than 35%. Further, the “platelet inhibition measured by ICHOR/Plateletworks” value in the test on platelet aggregation [2] is reported as no less than 35%.
As to `N=C(N)NCCCC[C@@H]1NC(=O)CCSSC[C@@H](C(N)=O)NC(=O)[C@@H]2CCCN2C(=O)[C@H](Cc2c[nH]c3ccccc23)NC(=O)[C@H](CC(=O)O)NC(=O)CNC1=O` [eptifibatide] ([Mpa][hArg]GDWPC-NH2; disulfide 1-7), the “platelet inhibition measured by LTA” value in the test on platelet aggregation [1] was no less than 30%. In addition, in the test with platelet aggregation [2], the “platelet inhibition measured by ICHOR/Plateletworks” value is listed as no less than 30%.

B1: Reopro: antibody based GPIIbIIIa antagonist (antibody, chains of the INN, looked up, V domains shown)
VH: EVQLQQSGTVLARPGASVKMSCEASGYTFTNYWMHWVKQRPGQGLEWIGAIYPGNSDTSYIQKFKGKAKLTAVTSTTSVYMELSSLTNEDSAVYYCTLYDGYYVFAYWGQGTLVTVSA
VL: EIVLTQSPVTLSVTPGDSVSLSCRASRDISNNLHWFQQTSHESPRLLIKYASQSMSGIPSRFSGSGSGTDFTLSINSVETEDFGMYFCQQTNSWPYTFGGGTKLEIK
modifications: Fab
notes: antibody based GPIIbIIIa antagonist
B1: the “inhibition of aggregation (maximum achieved on ICHOR instrument)” value in the test with platelet aggregation [2] (samples containing Reopro, microaggregates are counted as aggregation) is listed as no more than 60%.

(Values after patent US20050019742A1, “Methods for assessment of platelet aggregation” (priority 2002, published 2005).)
